{"source": "patent US20230263757A1", "about": "“DISINFECTING WIPE KIT FOR CENTRAL VENOUS ACCESS DEVICES” (SterileCare Inc., priority 2022, published 2023)", "key": {"[1]": {"test_system": "S. epidermidis SK9", "assay": "MIC, micro broth dilution", "type": "cell-based, Staphylococcus epidermidis", "conditions": "alone", "method": "(§1) An assay was made using a minimum inhibitory concentration (MIC) and minimum bactericidal concentration (MBC) and minimum fungicidal concentration (MFC) determination. The MIC was determined by the micro broth dilution method in 96-well plates. Serial two-fold dilutions of tetrasodium EDTA (from 2% to 0.015%), ethanol (from 50% to 0.1%) and chlorhexidine HCl (from 100 μg/mL to 0.025 μg/mL) were prepared in MH broth with a final volume of 90 μL per well. A 10 μL containing 1×10^5 bacterial cells or 2×10^3 fungal cells were added to each well. The inoculated plates were covered with a lid, sealed with Parafilm, and incubated for 24 h at 37° C. with slight rocking on a tilting platform shaker. After incubation, the optical density at 600 nm (OD 600) of the cultures in each well was measured using an xMark™ Microplate Absorbance Spectrophotometer (Bio-Rad). […] MBCs and MFCs were determined by transferring 100 μL from each well with no apparent growth onto appropriate agar plates, followed by incubation for 24 h at 37° C."}, "[2]": {"test_system": "Candida albicans SK4b", "assay": "MBC/MFC determination", "type": "cell-based", "conditions": "alone", "method": "as §1"}, "[3]": {"test_system": "Escherichia coli ON29", "assay": "MBC/MFC determination", "type": "cell-based", "conditions": "alone", "method": "as §1"}, "[4]": {"test_system": "Proteus mirabilis ON153", "assay": "MBC/MFC determination", "type": "cell-based", "conditions": "alone", "method": "as §1"}, "[5]": {"test_system": "Pseudomonas aeruginosa SK1", "assay": "MBC/MFC determination", "type": "cell-based", "conditions": "alone", "method": "as §1"}, "[6]": {"test_system": "Serratia marcescens SK2", "assay": "MBC/MFC determination", "type": "cell-based", "conditions": "alone", "method": "as §1"}, "[7]": {"test_system": "Staphylococcus aureus ON89", "assay": "MBC/MFC determination", "type": "cell-based", "conditions": "alone", "method": "as §1"}, "[8]": {"test_system": "Staphylococcus epidermidis ON170", "assay": "MBC/MFC determination", "type": "cell-based", "conditions": "alone", "method": "as §1"}, "[9]": {"test_system": "Stenotrophomonas maltophilia ON17", "assay": "MBC/MFC determination", "type": "cell-based", "conditions": "alone", "method": "as §1"}, "[10]": {"test_system": "S. epidermidis SK9", "assay": "MBC/MFC determination", "type": "cell-based, Staphylococcus epidermidis", "conditions": "alone", "method": "as §1"}, "[11]": {"test_system": "Candida albicans SK4b", "assay": "MBEC assay, 48-h biofilm, 24 h exposure", "type": "cell-based", "method": "(§2) A biofilm cultivation cell composition was provided. This fifth composition was created using an MBEC Assay® biofilm inoculator, consisting of a polystyrene lid with 96 downward-protruding pegs and a corresponding base used to grow biofilms. A standardized inoculum was diluted in an appropriate biofilm growth medium to achieve a viable cell count of 1.5×10^6 CFU/mL of bacterial cells or 5×10^5 CFU/mL of fungal cells. Then, 150 μL of this inoculum was transferred into each appropriate well, and the peg lids were inserted into the microtiter plates. The plates were sealed with Parafilm and were incubated at optimum temperature for 48 h with slight rocking for bacteria and shaking at 200 rpm for fungal strains. After incubation, the peg lid was removed from the base and rinsed twice with sterile phosphate-buffered saline (PBS) for 2 min to remove loosely attached non-sessile cells. Before the antimicrobial challenge, the pegs in column 1 (n=8) were considered the biofilm growth control; these pegs were removed from the lids, placed into 200 μL of recovery medium, and analyzed for starting biofilm cell numbers as described below. The rinsed pegs were placed into new 96-well plates containing two-fold dilutions of antimicrobials such as tetrasodium EDTA (4%-0.0125%), ethanol (100%-0.2%), and chlorhexidine HCl (100 μg/mL-0.4 μg/mL) in 200 μL of suitable biofilm growth medium per well and incubated at optimum temperature for 24 h. After the antimicrobial challenge, the pegs were rinsed twice with sterile PBS for 2 min and placed into a new 96-well plate containing 200 μL of recovery medium. The recovery plates were sealed with Parafilm, and biofilm cells were dislodged from the pegs by sonication for 30 min with a Branson 3510 bath sonicator. The biofilm cells in the recovery medium were serially diluted, and a drop dilution assay was performed to enumerate the viable cells. MBEC values were determined as the minimum concentration of antimicrobials that yielded a viable cell count at or lower than the 125 CFU/mL detection limit."}, "[12]": {"test_system": "Escherichia coli SK2", "assay": "MBEC assay, 48-h biofilm, 24 h exposure", "type": "cell-based", "method": "as §2"}, "[13]": {"test_system": "Proteus mirabilis ON153", "assay": "MBEC assay, 48-h biofilm, 24 h exposure", "type": "cell-based", "method": "as §2"}, "[14]": {"test_system": "Pseudomonas aeruginosa SK1", "assay": "MBEC assay, 48-h biofilm, 24 h exposure", "type": "cell-based", "method": "as §2"}, "[15]": {"test_system": "Staphylococcus aureus ON89", "assay": "MBEC assay, 48-h biofilm, 24 h exposure", "type": "cell-based", "method": "as §2"}, "[16]": {"test_system": "Staphylococcus epidermidis SK9", "assay": "MBEC assay, 48-h biofilm, 24 h exposure", "type": "cell-based", "method": "as §2"}, "[17]": {"test_system": "MRSA ON184", "assay": "FBEC index, checkerboard on biofilms", "type": "cell-based, S. aureus", "conditions": "for biofilm eradication concentration in combination (FBEC): EDTA + ethanol", "quoted_text": "(§3) In step (4), microtiter plates are incubated at 37° C. for 24 h. then (6), after incubation, the bacterial and fungal cells were dislodged from the pegs into the recovery medium described above.\n(§4) Three 10-μL aliquots, for a total of 30 μL from each well of recovery medium, were spotted on MH agar plates and incubated for 24 h at 37° C. […] The FBEC determination is a modification of the FICI."}, "[18]": {"test_system": "Candida albicans SK4b", "assay": "FBEC index, checkerboard on biofilms", "type": "cell-based", "conditions": "for biofilm eradication concentration in combination (FBEC): EDTA + ethanol", "quoted_text": "as §3, §4"}, "[19]": {"test_system": "48-h-old biofilms of all of the test organisms", "assay": "Rapid biofilm eradication, 2-h exposure", "type": "cell-based", "conditions": "two h of exposure; preformed biofilms", "method": "Determining rapid biofilm eradication by tetrasodium EDTA, ethanol, and chlorhexidine HCl alone and in combination was performed. After biofilm formation, control pegs (n=6) were removed and analyzed to determine the starting biofilm cell numbers via the drop dilution method. The 48-h old biofilms on the pegs were exposed to different concentrations of test antimicrobials, dissolved in an appropriate growth medium, for two h to evaluate their efficacy alone and in combination. Antimicrobial solutions tested against each organism included each agent alone at the MBEC, double combinations at the FBEC, and triple combinations ranging from 5 to 20% ethanol, 2.5-5 μg/mL chlorhexidine HCl and 1-3% tetrasodium EDTA. Following treatment, pegs were washed twice with sterile PBS, and the biofilm cells were dislodged into recovery medium and enumerated as described above.\nThe method for rapid biofilm eradication ability of test antimicrobials alone and in combination against 48-h-old biofilms within two h exposure time included (1) choosing different concentrations of test antimicrobials to assess their potency in eradicating preformed biofilms of study organisms within two h. Then (2) the quantitative recovery from biofilms following exposure to the antimicrobial solutions for bacterial strains (FIGS. 9A-9B) and fungal strains (FIG. 5) was evaluated."}}, "note": "Where a name gives a salt, the structure may show the parent alone. Read-outs that look alike come from different tables or passages of the source."}
{"smiles": "[H]/N=C(\\N/C(=N/[H])NCCCCCCNC(=N)NC(=N)Nc1ccc(Cl)cc1)Nc1ccc(Cl)cc1", "note": "[Chlorhexidine HCl, 1,6-bis(4′-chlorophenylbiguanide) hexane]", "values": [{"measurement": "MIC", "setting": "[1]; Staphylococcus epidermidis, read-out: MIC", "value": 0.1, "unit": "µg/mL"}, {"measurement": "MBC/MFC", "setting": "[2]", "value": 3.125, "unit": "µg/mL"}, {"measurement": "MBC/MFC", "setting": "[3]", "value": 0.8, "unit": "µg/mL"}, {"measurement": "MBC/MFC", "setting": "[4]", "value": 50, "unit": "µg/mL"}, {"measurement": "MBC/MFC", "setting": "[5]", "value": 3.125, "unit": "µg/mL"}, {"measurement": "MBC/MFC", "setting": "[6]", "value": 25, "unit": "µg/mL"}, {"measurement": "MBC/MFC", "setting": "[7]", "value": 0.8, "unit": "µg/mL"}, {"measurement": "MBC/MFC", "setting": "[8]", "value": 0.8, "unit": "µg/mL"}, {"measurement": "MBC/MFC", "setting": "[9]", "value": 3.125, "unit": "µg/mL"}, {"measurement": "MBC/MFC", "setting": "[10]", "value": 0.8, "unit": "µg/mL"}, {"measurement": "MBEC", "setting": "[11]", "value": 50, "unit": "µg/mL"}, {"measurement": "MBEC", "setting": "[12]", "value": 50, "unit": "µg/mL"}, {"measurement": "MBEC", "setting": "[13]", "value": 100, "unit": "µg/mL"}, {"measurement": "MBEC", "setting": "[14]", "value": 100, "unit": "µg/mL"}, {"measurement": "MBEC", "setting": "[15]", "value": 100, "unit": "µg/mL"}, {"measurement": "MBEC", "setting": "[16]", "value": 25, "unit": "µg/mL"}, {"measurement": "Chlorhexidine HCl biofilm eradication concentration in combination (FBEC)", "setting": "[17]; EDTA + chlorhexidine HCl", "value": 6.25, "unit": "µg/mL"}, {"measurement": "Chlorhexidine HCl biofilm eradication concentration in combination (FBEC)", "setting": "[18]; EDTA + chlorhexidine HCl", "value": 6.25, "unit": "µg/mL"}, {"measurement": "biofilm eradication at the MBEC alone", "setting": "[19]", "value": "failed to eradicate"}]}
{"smiles": "O=C([O-])CN(CCN(CC(=O)[O-])CC(=O)[O-])CC(=O)[O-].[Na+].[Na+].[Na+].[Na+]", "note": "[EDTA, tetrasodium EDTA]", "values": [{"measurement": "MIC", "setting": "[1]", "value": 0.063, "unit": "% w/v"}, {"measurement": "MBC/MFC", "setting": "[2]", "value": 1, "unit": "% w/v"}, {"measurement": "MBC/MFC", "setting": "[3]", "value": 1, "unit": "% w/v"}, {"measurement": "MBC/MFC", "setting": "[4]", "value": 2, "unit": "% w/v"}, {"measurement": "MBC/MFC", "setting": "[5]", "value": 1, "unit": "% w/v"}, {"measurement": "MBC/MFC", "setting": "[6]", "value": 2, "unit": "% w/v"}, {"measurement": "MBC/MFC", "setting": "[7]", "value": 1, "unit": "% w/v"}, {"measurement": "MBC/MFC", "setting": "[8]", "value": 0.5, "unit": "% w/v"}, {"measurement": "MBC/MFC", "setting": "[9]", "value": 1, "unit": "% w/v"}, {"measurement": "MBC/MFC", "setting": "[10]", "value": 0.5, "unit": "% w/v"}, {"measurement": "MBEC", "setting": "[11]", "value": 1, "unit": "% w/v"}, {"measurement": "MBEC", "setting": "[12]", "value": 2, "unit": "% w/v"}, {"measurement": "MBEC", "setting": "[13]", "value": 4, "unit": "% w/v"}, {"measurement": "MBEC", "setting": "[14]", "value": 4, "unit": "% w/v"}, {"measurement": "MBEC", "setting": "[15]", "value": 4, "unit": "% w/v"}, {"measurement": "MBEC", "setting": "[16]", "value": 2, "unit": "% w/v"}, {"measurement": "EDTA biofilm eradication concentration in combination (FBEC)", "setting": "[17]; EDTA + chlorhexidine HCl", "value": 0.031, "unit": "% w/v"}, {"measurement": "biofilm eradication concentration in combination (FBEC)", "setting": "[17]", "value": 0.063, "unit": "% w/v"}, {"measurement": "EDTA biofilm eradication concentration in combination (FBEC)", "setting": "[18]; EDTA + chlorhexidine HCl", "value": 0.063, "unit": "% w/v"}, {"measurement": "biofilm eradication concentration in combination (FBEC)", "setting": "[18]", "value": 0.125, "unit": "% w/v"}, {"measurement": "biofilm eradication at the MBEC alone", "setting": "[19]", "value": "failed to eradicate"}]}
{"smiles": "CCO", "note": "[Ethanol, ethanol]", "values": [{"measurement": "MIC", "setting": "[1]", "value": 6.25, "unit": "% w/v"}, {"measurement": "MBC/MFC", "setting": "[2]", "value": 6.25, "unit": "% w/v"}, {"measurement": "MBC/MFC", "setting": "[3]", "value": 25, "unit": "% w/v"}, {"measurement": "MBC/MFC", "setting": "[4]", "value": 12.5, "unit": "% w/v"}, {"measurement": "MBC/MFC", "setting": "[5]", "value": 12.5, "unit": "% w/v"}, {"measurement": "MBC/MFC", "setting": "[6]", "value": 12.5, "unit": "% w/v"}, {"measurement": "MBC/MFC", "setting": "[7]", "value": 25, "unit": "% w/v"}, {"measurement": "MBC/MFC", "setting": "[8]", "value": 6.25, "unit": "% w/v"}, {"measurement": "MBC/MFC", "setting": "[9]", "value": 6.25, "unit": "% w/v"}, {"measurement": "MBC/MFC", "setting": "[10]", "value": 12.5, "unit": "% w/v"}, {"measurement": "MBEC", "setting": "[11]", "value": 12.5, "unit": "% w/v"}, {"measurement": "MBEC", "setting": "[12]", "value": 12.5, "unit": "% w/v"}, {"measurement": "MBEC", "setting": "[13]", "value": 50, "unit": "% w/v"}, {"measurement": "MBEC", "setting": "[14]", "value": 12.5, "unit": "% w/v"}, {"measurement": "MBEC", "setting": "[15]", "value": 12.5, "unit": "% w/v"}, {"measurement": "MBEC", "setting": "[16]", "value": 12.5, "unit": "% w/v"}, {"measurement": "biofilm eradication concentration in combination (FBEC)", "setting": "[17]", "value": 1.6, "unit": "% w/v"}, {"measurement": "biofilm eradication concentration in combination (FBEC)", "setting": "[18]", "value": 1.6, "unit": "% w/v"}, {"measurement": "biofilm eradication at the MBEC alone", "setting": "[19]", "value": "failed to eradicate"}]}
